The text below walks through data of US10723726B2, “Solid forms of (Z)-4-(5-((3-benzyl-4-oxo-2-thioxothiazolidin-5-ylidene)methyl)furan-2-yl)benzoic acid” (GB006, INC., priority 2015, dated 2020).

Entries after “also recorded” stand apart in the source; their conditions may differ. Where two headings read alike, the source gives them in different places.

A short description of data set [1]: in vivo. To be noted: male, dog; for AUC0-t: AUC0-12 h. On the procedure:
The PO (2 mg/kg) dose solution of micronized LA1 was prepared in 0.1% Tween-80 0.5% (w/v) and methyl cellulose in water.
The objective of the study was to investigate the preclinical pharmacokinetic profile of LA1 (micronized powder) in Beagle dog. To delineate the plasma concentration vs. time curve and characterize the relevant pharmacokinetic parameters to generate data on the PK properties viz., bioavailability, half-life (b1/2), volume of distribution, Cmax, Tmax, AUC and elimination rate constant of LA1 in Beagle dog.
LA1 was a coarse material which was micronized using laboratory scale ball mill. […] The micronized LA1 was recovered, weighed and stored in glass container at room temperature. For intravenous drug administration, LA1 excipient compatibility assay for dosing in dogs were carried out.
In brief, a known amount of LA1 was loaded to a cylindrical capped container made of stainless steel followed by addition of stainless steel balls. The ball mills were rotated on their axis for total of 60 minutes (6 cycles X 10 minutes). The micronized LA1 was recovered, weighed and stored in glass bottle at room temperature.
Test system: Healthy Beagle dog weighing 10-12 kg (age 10 months), males were used for the study. Crossover design was adopted for the experiments wherein 02 dogs were used in the study for oral and intravenous administration. Both the animals were housed stainless steel cage provided with a hopper to hold pellet feed and a separate water hopper. Temperature and humidity was maintained at 22±3° C. and 40-70%, respectively. The illumination was controlled to give a sequence of 12 h light and 12 h dark cycle. All the animals were adapted to the experimental conditions for at least 5 days prior to dosing. All animals were provided with Pedigree™ standard pellet feed, except for 10 to 12 h before treatment and 4 h after the drug administration. Water was provided ad libidum.
Formulation and drug administration: Exactly 90 mg of the test item LA1 (micronized powder) was weighed and transferred to a mortar and briefly triturated with pestle. Small volume of vehicle [0.5% (w/v) Carboxy methyl cellulose with 0.1% Tween-80] in water was then added slowly with continuous trituration until a uniform suspension was obtained. The content was then transferred into the measuring cylinder. The mortar was rinsed till the complete transfer of test item into the measuring cylinder was ensured. The final volume was then made up to 225 mL with vehicle to get a uniform suspension with desired concentration of 0.4 mg/mL. Dosing formulations were given by oral gavage at a dose volume not exceeding 5 mL/kg.
Intravenous drug formulation: Hemolysis assay using dog whole blood was employed to assess the damage of red blood cells for selection of excipient for intravenous dosing. […] Exactly 22.5 mg of the test item (micronized powder) was weighed into a graduated tube. 2.25 mL of DMSO was added drop wise and mixed by vortex. Then, 40.50 mL of Polyethylene glycol 400 (PEG-400) was added in two to three fragments and vortex intermittently. Then 2.25 mL Ethanol was added drop wise and vortex to get clear solution. The formulation was subjected to ultra-sonication for 5 minutes.
Sample collection: Serial method was used for blood sampling. Blood samples were collected as mentioned in the study design section (7). The blood sample (−1.5 mL) was collected from saphenous vein into labeled tubes, containing 2% w/v K2EDTA solution, as an anticoagulant.

For data set [2] the following is noted: male, Sprague-Dawley, in vivo.
Method: (§1) In a second experiment, the dose solution was prepared in Tween-80 (0.02%) and 0.5% methyl cellulose in Milli-Q water. IP (2 mg/kg) and IV (1 mg/kg) dose solutions were prepared in a 5% DMSO and 95% PEG-200.
(§2) The PO (2 mg/kg) dose solution was prepared in Tween-80 (0.02%) and 0.5% methyl cellulose in Milli-Q water. The IV (1 mg/kg) dose solution was prepared in a solution of 5% DMSO and 95% PEG-200.
(§3) The routes of administration were namely PO (gavage), IP (bolus) and IV (bolus through tail vein). A total of four SD male rats were used aged between 5-6 weeks. The feeding regimen included 12 h fasting and the feed was provided 2 hrs after the dosage inoculation and water was provided ad libidum. The blood collection schedule for PO/IP was at 0.25, 0.5, 1, 2, 4, 8, 10 and 24 h, and for IV it was at 0.12, 0.25, 0.5, 1, 2, 4, 8 and 24 h. For PO dosage, tween-80 (0.02%) and 0.5% methyl cellulose prepared in milli-Q water were used as vehicles; for IP and IV dosage 5% DMSO and 95% PEG-200 were used as vehicles.
(§4) Stock solution (178 μg/mL) in methanol was further diluted using methanol: water (80:20, v/v) to obtain working solutions in the range of 10.4 to 20745 ng/mL.
(§5) 50 μL of sample was aliquoted in to pre-labeled vials. To it was added 200 μL of 10% tetrahydrofuran containing IS (100 ng/mL; tolbutamide) and mixed well, vortexed for 5 min followed by centrifugation for 5 min at 14000 rpm for at 4° C. Supernatant was separated and 5 μL of same was injected on LC-MS/MS.
(§6) Data Analysis: Individual concentration-time data were analyzed using WinNonlin (Version 5.3) by non-compartmental analysis (NCA) method.
(§7) The routes of administration were namely PO (gavage) and IV (bolus through tail vein). A total of four SD male rats were used aged between 5-6 weeks. The feeding regimen included 12 h fasting and the feed was provided 2 hrs after the dosage inoculation and water was provided ad libitum. The blood collection schedule for PO was at 0.25, 0.5, 1, 2, 4, 8, 10 and 24 h, and for IV it was at 0.12, 0.25, 0.5, 1, 2, 4, 8 and 24 h. For PO dosage, tween-80 (0.02%) and 0.5% methyl cellulose prepared in milli-Q water were used as vehicles; for IV dosage 10% DMSO and 90% PEG-200 were used as vehicles.
Data set [3] in a line: in vivo. To be noted: male, Sprague-Dawley, rat, po, 2 mg/kg.
Method: as §1, §2, §3, §4, §5, §6, §7
A short description of data set [4]: Humidity stress at 40° C./75% RH. In kind it is physicochemical. To be noted: 5-6 days. As for the experimental part: The larger vials were capped, sealed with Parafilm and placed inside an oven at 40° C. for up to 6 days. Salts were then removed from these conditions and changes observed (e.g. color, deliquescence etc.) before being analyzed for weight change and by XRPD. Samples were examined visually after stressing, form composition confirmed by XRPD analysis and weight change recorded (Table 7).

Data set [5] can be described thus: Aqueous solubility by equilibration, HPLC analysis. In kind it is physicochemical. The settings on record: for Appearance / Soln pH: after slurrying in water 4-5 days; for HPLC purity (%): after slurrying in water 4-5 days (chemical stability). As for the experimental part: An aliquot of the UHQ water test solvent (1 mL) was added to an accurately weighed sample of the LA1 salts and agitated at ambient temperature for a period of 4 days. A sample was withdrawn, filtered through a […], and analyzed by HPLC. HPLC was used to determine aqueous equilibrium solubility at ambient temperature. […] Samples were slurried in water for 4-5 days before analysis.

Setting [6] is: beagle, iv, 0.5 mg/kg, Plasma concentration.
[7] abbreviates: beagle, po, 0.5 mg/kg, Plasma concentration.

The term bioavailability denotes dose-corrected exposure relative to a reference, in per cent. Read a high bioavailability as much systemic uptake. For orientation: clearance means the rate of elimination divided by the concentration. The low end stands for inefficient removal, the high end for efficient removal. As usually defined, the AUC(0-inf) is total exposure, with the tail of the curve extrapolated. High values mean high exposure, low ones low exposure. Broadly, the Cmax is the peak of the concentration-time curve. Broadly, the half-life is how long it takes for the measured level to halve. Read a low half-life as fast loss. For orientation: Tmax means the time from dosing to the highest level. As usually defined, the Vss is a proportionality between amount in the body and measured concentration, not a real space. Usually MRT stands for the average time that molecules of a dose stay in the body. In general, Vd refers to a proportionality between amount in the body and measured concentration, not a real space. Low readings indicate little distribution into tissue, high ones wide distribution into tissue. One may read the AUC as the area under the concentration-time curve, a measure of exposure. The low end stands for low exposure, the high end for high exposure. Consider `O=C(O)c1ccc(-c2ccc(/C=C3\SC(=S)N(Cc4ccccc4)C3=O)o2)cc1` [LA1 (micronized)], for which the concentration at 12 h in the data set “in vivo [1]” (Beagle, iv, 0.5 mg/kg, Plasma concentration) came out at 7.93 ng/mL; in “in vivo [1]” (setting [7]), 37.5 ng/mL. The bioavailability in “in vivo [1]” (beagle, Absolute oral bioavailability) is 50.6%; in “in vivo [1]” (beagle, Dog F % (absolute oral bioavailability)), 50%; in the data set “in vivo [1]” (beagle, po, 0.5 mg/kg, Absolute Bioavailability F %), 50.6%; in the data set “in vivo [3]” (Rat F %), 23%. For the same molecule, the clearance in “in vivo [1]” (beagle, Dog Cl (ml/min/kg)) came out at 2.1 mL/min/kg. Besides, the AUC0-t in the data set “in vivo [1]” (beagle, iv, 0.5 mg/kg) was found to be 1330 ng·h/mL; in the data set “in vivo [1]” (beagle, po, 3 mg/kg) it was 2570 ng·h/mL; in data set [2] (rat, iv, 1 mg/kg), 715 ng·h/mL; in data set [2] (rat, po, 2 mg/kg), 319 ng·h/mL. Further, the AUC(0-inf) was 1350 ng·h/mL in “in vivo [1]” (beagle, iv, 0.5 mg/kg, AUC0-inf); 1350 ng·h/mL in the data set “in vivo [1]” (beagle, iv, 0.5 mg/kg, AUCinf); 2690 ng·h/mL in the data set “in vivo [1]” (beagle, po, 2 mg/kg, AUCinf); 2690 ng·h/mL in the data set “in vivo [1]” (beagle, po, 3 mg/kg, AUC0-inf). Further, the C0 in the data set “in vivo [1]” (beagle, iv, 0.5 mg/kg, C0) is 1330 ng/mL; in data set [2] (rat, iv, 1 mg/kg) it was 1025 ng/mL. The Cmax is 2040 ng/mL in “in vivo [1]” (beagle, iv, 0.5 mg/kg, Co/Cmax); 685 ng/mL in the data set “in vivo [1]” (beagle, po, 2 mg/kg, Cmax); 685 ng/mL in “in vivo [1]” (beagle, po, 3 mg/kg, Co/Cmax). For the same molecule, in the data set “in vivo [1]” (setting [6]), the concentration at 0.05 h was found to be 1570 ng/mL. For the same molecule, the concentration at 0.1 h in the data set “in vivo [1]” (setting [6]) came out at 897 ng/mL. In “in vivo [1]” (setting [6]), this molecule showed a concentration at 0.25 h of 717 ng/mL. Moreover, the concentration at 0.5 h in “in vivo [1]” (setting [6]) was determined as 505 ng/mL. In the data set “in vivo [1]” (setting [6]), this molecule returned a concentration at 1 h of 405 ng/mL. In the data set “in vivo [1]” (setting [7]), this molecule displayed a concentration at 4 h of 660 ng/mL. This molecule displayed a concentration at 6 h in the data set “in vivo [1]” (setting [7]) of 211 ng/mL. Further, in “in vivo [1]” (setting [7]), the concentration at 8 h was 118 ng/mL. For the same molecule, the half-life was 2.11 h in “in vivo [1]” (beagle, po, 2 mg/kg); 2.11 h in the data set “in vivo [1]” (beagle, po, 3 mg/kg); 1.1 h in the data set “in vivo [3]” (t1/2 (hr)). Moreover, the Tmax was found to be 4 h in the data set “in vivo [1]” (beagle, po, 3 mg/kg) and 0.88 h in data set [2] (rat, po, 2 mg/kg). For the same molecule, the “Rat Cl” value in data set [2] was 23.4 mL/min/kg. Moreover, the “Vss” value in data set [2] (rat) is given as 2.14 L/kg. In addition, the “AUC0-∞” value in data set [2] (rat, iv, 1 mg/kg) was found to be 729 ng·h/mL; in data set [2] (rat, po, 2 mg/kg), 336 ng·h/mL. Further, the MRT in data set [2] (rat, iv, 1 mg/kg) is 1.47 h; in “in vivo [3]” (MRT (hr)) it was 2.04 h. Further, the Tlast came out at 12.0 h in data set [2] (rat, iv, 1 mg/kg) and 6.50 h in data set [2] (rat, po, 2 mg/kg). In addition, the Vd in data set [2] (rat, iv, 1 mg/kg) was found to be 2.63 L/kg. Besides, the AUC in the data set “in vivo [3]” (AUC (with PO bioavailability)) and in the data set “in vivo [3]” (AUC in mM*hr) was 0.76 µM·h each time.
For `[Ca]` [calcium], in data set [4], the “Weight gain (%)” value is 1.7% and the XRPD after stressing result is “More disordered”. Moreover, in data set [5], the Appearance result is “No change”, the “Soln pH” value was determined as 7 and the “HPLC purity (%)” value is listed as 5.58%.
The corresponding values for `C1CNCCN1` [piperazine] are −5.5%, “phase change; also recorded: New pattern (R)”, “No change”, 8 and 5.31%.
As for `NC(CO)(CO)CO` [tromethamine], the XRPD after stressing entry in data set [4] is “phase change; also recorded: New pattern (S)”. Besides, in data set [5], the Appearance entry is “Yellow ppt seen”, the “Soln pH” value is on record as 8 and the “HPLC purity (%)” value was 89.7%. The “physical stability in water” value in data set [5] (slurrying 4-5 days, XRPD) is reported as “not physically stable in water”.
